Here are results for eleven molecules from ChEMBL document CHEMBL1201862, “PubChem BioAssay data set” (2004).

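All cell lines were grown in 96-well plates and treated with compound for 48 hours. Here, GI50 denotes the concentration required for 50% inhibition of growth.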 Activity calls are given as the source filed them. No stated cut-off is given here; in the data, active = GI50 up to about 1.1 µM and inactive = higher.

Some test systems named below: U-251; 786-0; K562; OVCAR-5; SF-295; COLO 205; A549; OVCAR-4; NCI-H460; SK-OV-3; ACHN; A498; HOP-92; UO-31; OVCAR-3; SK-MEL-28; KM12; HCT-15; CAKI-1.
Holding throughout (test): NCI tumour cell line growth inhibition, 48 h

For the molecule `Nc1nc2[nH]cnc2c(=O)[nH]1`, the GI50 with U-251, in the assay with 786-0, in the assay on K562, in the assay with OVCAR-5, in the assay on SF-295 and in the assay on COLO 205 was > 100 µM (inactive) each time. Also, the GI50 in the assay with A549, with OVCAR-4, in the assay with NCI-H460, in the assay on SK-OV-3, in the assay with ACHN and in the assay with A498 was > 100 µM (inactive) throughout. For the same molecule, the GI50 in the assay with HOP-92 is > 100 µM (inactive); in the assay on UO-31 it was > 100 µM (inactive); in the assay on OVCAR-3, > 100 µM (inactive); in the assay on SK-MEL-28, > 100 µM (inactive); in the assay on KM12, > 100 µM (inactive); with HCT-15, > 100 µM. The GI50 in the assay on CAKI-1 is > 100 µM (inactive).
Consider `CC1=C(O)C(=O)C2C(=O)C1C(C)C2c1ccc(Cl)cc1` (stereo not given), for which the GI50 in the assay on U-251, in the assay with 786-0, in the assay on K562, with OVCAR-5, with SF-295 and in the assay with COLO 205 was > 100 µM (inactive) throughout. The GI50 in the assay on A549, in the assay on OVCAR-4, with SK-OV-3, in the assay on ACHN, in the assay with A498 and in the assay on HOP-92 was > 100 µM (inactive) in each case. Also, the GI50 with UO-31 is > 100 µM (inactive); in the assay with OVCAR-3, > 100 µM (inactive); in the assay with SK-MEL-28, > 100 µM (inactive); in the assay with KM12 it was > 100 µM (inactive); with HCT-15 it was > 100 µM; in the assay on CAKI-1, > 100 µM (inactive).
On to `S=C1SCC2CCCN12` (stereo not given), for which the GI50 in the assay on U-251, with 786-0, in the assay with K562, with OVCAR-5, in the assay on SF-295 and with COLO 205 was > 100 µM (inactive) in each case. For the same molecule, the GI50 with A549, with OVCAR-4, in the assay on NCI-H460, in the assay with SK-OV-3, in the assay with ACHN and in the assay on A498 was > 100 µM (inactive) each time. Further, the GI50 in the assay with HOP-92 is > 100 µM (inactive); with UO-31 it was > 100 µM (inactive); in the assay with KM12 it was > 100 µM (inactive); in the assay with HCT-15, > 100 µM; with CAKI-1, > 100 µM (inactive).
Consider `O=C1OC(c2ccccc2)=N/C1=C/NC(Cc1c[nH]cn1)C(=O)O` (stereo not given), for which the GI50 in the assay on U-251, in the assay with 786-0, in the assay on K562, with OVCAR-5, in the assay on SF-295 and with COLO 205 was > 100 µM (inactive) each time. Also, the GI50 with A549, in the assay with OVCAR-4, with NCI-H460, in the assay on SK-OV-3, in the assay on ACHN and in the assay with A498 was > 100 µM (inactive) throughout. Also, the GI50 in the assay on HOP-92 is > 100 µM (inactive); in the assay with UO-31, > 100 µM (inactive); in the assay on OVCAR-3, > 100 µM (inactive); with SK-MEL-28, > 100 µM (inactive); in the assay on HCT-15, > 100 µM.
On to `OCC12C3C4C1C1C2C3C41CO` (stereo not given), for which the GI50 with U-251, in the assay on 786-0, in the assay with K562, in the assay on OVCAR-5, in the assay with SF-295 and in the assay on COLO 205 was > 100 µM (inactive) each time. Further, the GI50 in the assay on A549, with OVCAR-4, in the assay on NCI-H460, in the assay on SK-OV-3, in the assay on ACHN and in the assay with A498 was > 100 µM (inactive) in each case. The GI50 with HOP-92 is > 100 µM (inactive); in the assay with UO-31, > 100 µM (inactive); with OVCAR-3 it was > 100 µM (inactive); in the assay on SK-MEL-28, > 100 µM (inactive); in the assay with HCT-15, > 100 µM; in the assay on CAKI-1 it was > 100 µM (inactive).
For `CC12N=NNC1C(=O)NC2=O` (stereo not given), the GI50 in the assay with U-251, with 786-0, in the assay with K562, with SF-295, in the assay with COLO 205 and with A549 was > 100 µM (inactive) in each case. The GI50 with OVCAR-4 was > 100 µM (inactive); with NCI-H460, > 100 µM (inactive); in the assay on SK-OV-3, > 100 µM (inactive); with ACHN, > 100 µM (inactive); with A498 it was 89.3 µM (inactive); with HOP-92, > 100 µM (inactive). In addition, the GI50 with UO-31 is > 100 µM (inactive); in the assay with OVCAR-3, > 100 µM (inactive); in the assay with SK-MEL-28, > 100 µM (inactive); in the assay with KM12, > 100 µM (inactive); in the assay on HCT-15, > 100 µM; in the assay with CAKI-1 it was > 100 µM (inactive).
On to `CN1C(=O)C2C=CC1C1CCC2N(C)C1=O` (stereo not given), for which the GI50 with U-251, in the assay with 786-0, in the assay on K562, in the assay on OVCAR-5, with SF-295 and in the assay on COLO 205 was > 100 µM (inactive) each time. In addition, the GI50 in the assay with A549, in the assay on OVCAR-4, in the assay on SK-OV-3, in the assay with A498, in the assay with HOP-92 and in the assay on UO-31 was > 100 µM (inactive) in each case. Moreover, the GI50 in the assay with OVCAR-3 is > 100 µM (inactive); with SK-MEL-28, > 100 µM (inactive); in the assay with KM12, > 100 µM (inactive); with HCT-15 it was > 100 µM; in the assay on CAKI-1 it was > 100 µM (inactive).
In the case of `CC(C)(C)[Si](C)(C)OC1C(=O)C[C@H]2CCCC[C@@H]12` (stereo not given in full), the GI50 in the assay with U-251, in the assay on 786-0, in the assay on K562, with OVCAR-5, in the assay on SF-295 and with COLO 205 was > 100 µM (inactive) throughout. Besides, the GI50 with A549, with OVCAR-4, in the assay on NCI-H460, in the assay on SK-OV-3, with ACHN and with A498 was > 100 µM (inactive) each time. The GI50 is 20.2 µM (inactive) with HOP-92; > 100 µM (inactive) in the assay with UO-31; > 100 µM (inactive) with OVCAR-3; > 100 µM (inactive) in the assay with KM12; > 100 µM in the assay on HCT-15; > 100 µM (inactive) in the assay with CAKI-1.
For the molecule `O=C(CCc1cc(-c2ccco2)n(-c2ccc([N+](=O)[O-])cc2[N+](=O)[O-])n1)Nc1ccccc1`, the GI50 in the assay with U-251 was > 100 µM (inactive); in the assay on 786-0, > 100 µM (inactive); in the assay on K562, 45.5 µM (inactive); with OVCAR-5, > 100 µM (inactive); with SF-295, > 100 µM (inactive); with COLO 205, > 100 µM (inactive). Moreover, the GI50 in the assay on A549, in the assay on OVCAR-4, in the assay on NCI-H460, in the assay with SK-OV-3, in the assay with ACHN and in the assay with A498 was > 100 µM (inactive) in each case. Besides, the GI50 with HOP-92 was > 100 µM (inactive); in the assay with UO-31, > 100 µM (inactive); in the assay on SK-MEL-28 it was > 100 µM (inactive); in the assay on KM12 it was > 100 µM (inactive); in the assay with HCT-15 it was > 100 µM; with CAKI-1 it was > 100 µM (inactive).
As to `COc1cccc2c1C(=O)c1c(O)c3c(c(O)c1C2=O)C[C@@](O)(C(=O)CO)CC3OC1CC(NCCOCC(OC(C)=O)OC(C)=O)C(O)C(C)O1` (stereo not given in full), the GI50 in the assay on U-251 was 0.00925 µM (active); in the assay on 786-0, < 0.01 µM (active); in the assay with K562, < 0.01 µM (active); with OVCAR-5, < 0.01 µM (active); in the assay with SF-295 it was 0.00973 µM (active); with A549, < 0.01 µM (active). In addition, the GI50 in the assay with OVCAR-4, in the assay with NCI-H460, in the assay on SK-OV-3, with ACHN, with A498 and with HOP-92 was < 0.01 µM (active) each time. The GI50 in the assay on UO-31 was < 0.01 µM (active); in the assay on OVCAR-3 it was < 0.01 µM (active); in the assay with SK-MEL-28 it was < 0.01 µM (active); with KM12, < 0.01 µM (active); with HCT-15 it was < 0.01 µM; with CAKI-1, 0.01 µM (active).
Turning to `NC1CCC[C@H]1O` (stereo not given in full), the GI50 with U-251, in the assay on 786-0, in the assay on K562, in the assay on SF-295, with COLO 205 and with A549 was > 100 µM (inactive) each time. Also, the GI50 in the assay with OVCAR-4, in the assay on NCI-H460, in the assay with SK-OV-3, with ACHN, in the assay on A498 and in the assay on HOP-92 was > 100 µM (inactive) in each case. Also, the GI50 in the assay on UO-31 was > 100 µM (inactive); in the assay on OVCAR-3 it was > 100 µM (inactive); in the assay with SK-MEL-28, > 100 µM (inactive); in the assay on KM12 it was > 100 µM (inactive); with HCT-15, > 100 µM.
